No end group written: not given here.
Experiments:
TcdB autoprotease domain = experiment: In vitro autoprocessing of TcdB (InsP6-induced autoprotease activity); format: biochemical, C. difficile VPI 10463; conditions: NEM 1 mM; TcdB 2 µg, InsP6 1 mM; 1 h, 37 °C, pH 7.4 (n = 2)
Method: (§1) The flow rate was 25 µL/min. […] A representative gel is shown (n = 2). […] GAPDH served as the loading control. A representative Western blot is shown.
The effects of α-def-6 on TcdB autoprocessing by its intrinsic cysteine protease activity were analyzed. […] Inositol hexakisphosphate (1 mM, Santa Cruz Biotechnology, Dallas, TX, USA) was added to the samples to induce autoprocessing. N-Ethylmaleimide (1 mM, Sigma Aldrich by Merck KGaA, Darmstadt, Germany) served as positive control for the inhibition of TcdB-autoprocessing. The reactions were stopped by addition of a Laemmli buffer and heat denaturation (95 °C). For the analysis, the samples were electrophoresed on 8% SDS polyacrylamide gels, and proteins were visualized by Coomassie staining.

glucosyltransferase = conditions: control in UDP-Glo assay at 10 mM; ref [29]; cited from earlier work
Method: Based on the finding that TcdB directly binds to α-def-6 in vitro, a set of experiments was performed to investigate the consequences of this interaction for TcdB. Although α-def-6 and TcdB interact directly, the release of the glucosyltransferase domain by the autoprotease domain in the presence of inositol hexakisphosphate (InsP6) was not affected (Figure 1B).

zebrafish embryos = conditions: in vivo
TcdA, TcdB and CDT = conditions: ref [25],[26]; cited from earlier work
From the text: (§2) The benchmark for treating CDIs is still the use of some specific antibiotics such as vancomycin, metronidazole or fidaxomicin [20]. More and more attention is also being paid to the direct inactivation of the secreted toxins, for example by using anti-toxin-antibodies such as bezlotoxumab or actoxumab. Following the approach of directly inactivating the secreted toxins and based on previous findings of our group and of others, we investigated the effects of human endogenous antimicrobial peptides on the C. difficile toxins TcdA and TcdB. Here, of particular interest is the group ...

bacterial protein toxins = conditions: ref [51]; cited from earlier work
From the text: There is increasing evidence that α-def-6 represents an outlier among the α-defensins, which is also noticeable in the context of bacterial toxins. Anti-toxin activities have already been described for several α-defensins.

TcdB [1] = conditions: SPR, β-def-1 6 µM (control); pH 7.0, 25 °C, 25 µL/min, 4 min injection
Method: (A) 2400 RUs of biotinylated TcdB were immobilized via streptavidin-biotin binding onto a streptavidin sensor chip, and α-def-6 (concentrations as indicated) was applied to the chip for 4 min followed by a dissociation phase with a flow of running buffer. A solution of 6 µM of α-def-6 was injected twice to assess reproducibility, and β-def-1 (6 µM) served as a control. The flow rate was 25 µL/min.
TcdB was biotinylated via EZ-Link^TM Sulfo-NHS-Biotin (Thermo Fisher Scientific, Waltham, MA, USA) according to the manufacturer’s protocol. Briefly, TcdB was incubated with Sulfo-NHS-Biotin for 30 min at room temperature (RT). To remove the excess non-reacted biotin, TcdB was rebuffered with a Zeba^TM Spin Desalting Column (Thermo Fisher Scientific, Waltham, MA, USA). The successful biotinylation was verified via Western blotting and detection with peroxidase-conjugated streptavidin (1:2500, F. Hoffmann-La Roche AG, Basel, Switzerland).
The binding of α-def-6 to biotinylated TcdB was analyzed via surface plasmon resonance spectroscopy (SPR) with a Reichert SPR7500DC SPR spectrometer (Reichert Technologies, Buffalo, NY, USA). All analytes were dialyzed in running buffer (10 mM HEPES, 150 mM NaCl, 50 µM EDTA, 0.005% (v/v) Tween®20, pH 7.0) beforehand. Experiments were performed with a flow rate of 25 µL/min at 25 °C. […]

[2] = tested on: bacterial toxins including TcdB; conditions: cited from earlier work
TcdB glucosyltransferase = experiment: UDP-Glo glucosyltransferase assay; format: biochemical, C. difficile VPI 10463; conditions: TcdB 200 pM, recombinant Rac1 5 µM, UDP-glucose 100 µM, 1 h, 37 °C, pH 7.5, luminescence (n ≥ 3)
Method: as §1
UDP-Glo™ Glucosyltransferase assay with UDP-Glucose (Promega Corporation, Madison, WI, USA) was performed according to the manufacturer’s protocol. Briefly, TcdB (200 pM) was incubated in glucosylation buffer (50 mM HEPES, 100 mM KCl, 2 mM MgCl2, 1 mM MnCl2, 100 mg/L BSA, pH 7.5) with various concentrations of the respective inhibitors in a final volume of 40 µL. 5 µM recombinant Rac1 was included in the samples as a substrate. […] Castanospermine (10 mM, Santa Cruz Biotechnology, Dallas, TX, USA) served as control for inhibition of glucosyltransferase activity of TcdB. To stop the reaction, three times 10 µL of each sample were transferred to a white half area 96 well microplate (Greiner Bio-One International GmbH, Kremsmünster, Austria) combined with 10 µL of UDP Detection Reagent and mixed at 1000 rpm for 30 s on a plate shaker (Titramax 1000, Heidolph Instruments GmbH & Co. KG, Schwabach, Germany). Luminescence was recorded after 15–60 min via a Tecan infinite M1000 Pro plate reader (Tecan, Männdorf, Switzerland) with an integration time of 750 ms.

bacteria = conditions: ref [46]; cited from earlier work
From the text: as §2, with “TcdB. […] The administration” for “TcdB. Here,”, “of α-def-6 protected human cells from TcdB, but also from” for “of particular interest is”, “the closely related TcdA and the clinically more relevant combination of both TcdA and TcdB. Exemplarily, the protective effect could be confirmed for TcdB in vivo using the zebrafish embryo” for “the group”

TcdB [3] = conditions: ref [24]; cited from earlier work

## CCN1C(=O)C=CC1=O [NEM, N-ethylmaleimide, reference compound]
TcdB autoprotease domain
  autocatalytic processing of TcdB (effect of control inhibitor): prevented the autocatalytic processing of TcdB

## O[C@H]1[C@H](O)[C@@H](O)CN2CC[C@H](O)[C@H]12 [castanospermine]
glucosyltransferase
  inhibition of glucosyltransferase: established glucosyltransferase inhibitor

## Abamectin [reference compound]
Zebrafish embryos
  neurotoxicity: causes neurotoxicity

## α-defensin-1: human neutrophil peptide 1, α-defensin cited from earlier work [reference compound]
TcdA, TcdB and CDT
  inactivation of TcdA, TcdB and CDT: inactivate TcdA and CDT, in addition to TcdB
Bacterial protein toxins
  destabilization of toxin secondary and tertiary structures (local unfolding): leads to the destabilization of secondary and tertiary structures

## β-def-1: β-defensin used as control to exclude non-specific interactions; purchased from Pepta Nova (DHYNCVSSGGQCLYSACPIFTKIQGTCYRGKAKCCK; ends and bridges not checked; cysteine pairing not given here) [reference compound]
TcdB [1]
  interaction with immobilized TcdB, compared to α-def-6: much weaker in combination with a faster washout
[2]
  interaction with bacterial toxins including TcdB: do not interact with bacterial toxins including TcdB

B1: α-def-5: structurally similar defensin; purchased from Pepta Nova (peptide, UniProt Q01523 20-94, looked up)
Defensin alpha 5: ESLQERADEATTQKQSGEDNQDLAISFAGNGLSALRTSGSQARATCYCRTGRCATRESLSGVCEISGRLYRLCCR
modifications: Defensin-5
notes: structurally similar defensin; purchased from Pepta Nova
TcdB glucosyltransferase
  inhibition of glucosyltransferase activity of TcdB: clear concentration-dependent reduction of glucosyltransferase activity
TcdA, TcdB and CDT
  inactivation of TcdA, TcdB and CDT: inactivate TcdA and CDT, in addition to TcdB
bacteria
  biocidal / antimicrobial activity: significant biocidal activity against invading pathogens
TcdB [3]
  inhibition of glucosyltransferase and glucosylhydrolase activity of TcdB: directly inhibits the glucosyltransferase and glucosylhydrolase activity of TcdB

— article PMC9101188, “Human α-Defensin-6 Neutralizes Clostridioides difficile Toxins TcdA and TcdB by Direct Binding” (International Journal of Molecular Sciences, 2022)
